Source: US20110263647A1 (AMGEN INC., priority 2009, published 2011)
Where two headings read alike, the source gives them in different places.

What was measured:
[1] = In vivo pharmacokinetics, IV and oral gavage; set-up: species or system male Sprague-Dawley rats; details: rat; for FPO: Table 5; for Fpo (%): Table 6; for clearance / AUC(0-t) / Cmax / Vd: male, Sprague-Dawley, plasma; for Vd: read-out: Vss
Protocol: In vivo pharmacokinetic parameters were determined by measuring systemic plasma exposure in male Sprague-Dawley rats (Charles River Laboratories or Taconic, Oxnard, Calif.) by intravenous administration (N=3 fed rats: 2 mg/kg tail vein injection in DMSO) and oral gavage (N=3 fasted rats: 5 mg/kg in 1% Tween 80-2% HPMC-97% deionized water-pH 2.0 vehicle) (Comparative Example 18′ was only dosed IV and at 0.5 mg/kg). DMSO was obtained from Mallinckrodt Inc.; Tween 80 was obtained from Croda; HPMC is Methocel E50 Premium LV, obtained from Dow Excipients. Following oral administration, blood was drawn (250 μL) at 0.25, 0.5, 1, 2, 4, 6, 8, 12, and 16 hours. Following iv administration, blood was drawn (250 μL) at 0.083, 0.25, 0.5, 1, 2, 4, 6, 8, and 16 hours. Blood samples were drawn using a Culex® In Vivo Sampling System (BASi) and collected in BD Microtainer® tubes containing Lithium Heparin (BD). Plasma was obtained by centrifugation of blood at 14000 g and 2-8° C. for five minutes using an Eppendorf 5417R Centrifuge System. Plasma samples were mixed with 2× volume of acetonitrile (Sigma-Aldrich, St. Louis, Mo.). The mixture was stirred briefly using a vortex mixer and then centrifuged at 2867 g for 5 minutes in a Beckman Coulter Allegra 25R equipped with a Type S5700 rotor. The supernatant was removed and diluted 2× with mobile phase A (5/94.9/0.1 v/v/v MeOH/water/AcOH). Plasma concentrations were determined using liquid chromatography/tandem mass spectrometry, with electrospray ionization (ESI) and multiple reaction monitoring in the positive ion mode (Sciex API 3000 mass spectrometer connected to a Shimadzu LC-20AD pump and a LEAP PAL autosampler. Typical conditions used for HPLC were: mobile phase A=5/94.9/0.1 v/v/v MeOH/water/AcOH and mobile phase B=95/4.9/0.1 v/v/v MeOH/water/AcOH; HPLC column was a Varian MonoChrom C18.3μ for 2×30 mm and 51.1 for 2×50 mm) Instrument response was calibrated by a standard curve over 0.1-2000 ng/mL concentration range, and the lower limit of quantitation was 0.1-2.5 ng/mL. Peak areas were integrated on a Windows 2000 computer using the Sciex program Analyst® (Version 1.4.1). Following peak area integration, the data were exported to the software package (Watson® Non-GLP PROD (Version 7.0.0.01, Thermo Electron Corp., Waltham, Mass.)), where concentrations were determined by a weighted linear regression of peak area versus the nominal concentrations of the calibration standards. Calculations were performed on unrounded numbers. The Watson® Non-GLP PROD software was used to determine precision and accuracy for the calibration standards. Noncompartmental analysis of plasma concentration data was used to generate PK parameters such as clearance (CL, L/h/kg), volume of distribution (Vss, L/kg), area under the curve (AUC, ng·h/mL) and secondary parameters such as half-life (t1/2, h) and oral bioavailability (% F, %). This was done using WinNonlin Enterprise software (Version 5.1.1, from Pharsight Corp., Mountain View, Calif.). References for pharmacokinetic analysis include: Gabrielsson and Weiner (1997) Pharmacokinetic and Pharmacodynamic Data Analysis Concepts and Applications, 2nd ed., Swedish Pharmaceutical Press, Stockholm; Gibaldi and Perrier (1982) Pharmacokinetics, 2nd ed., Marcel Dekker, New York. Rowland and Tozer (1995) Clinical Pharmacokinetics: Concepts and Applications, 3rd ed., Lippincott Williams & Wilkins, Philadelphia.

CYP2D6 = target: T1, CYP2D6 (Homo sapiens, UniProt P10635); assay: CYP2D6 inhibition assay (bufuralol, pooled human liver microsomes); assay type: in vitro ADME; details: pH 7.4, probe bufuralol (5 μM), test compound 3 μM, human liver microsomes 0.25 mg/mL
T1 construct: tissue XenoTech LLC Lot 0610351; host or cells: pooled human liver microsomes
T1 sequence (P10635 whole entry): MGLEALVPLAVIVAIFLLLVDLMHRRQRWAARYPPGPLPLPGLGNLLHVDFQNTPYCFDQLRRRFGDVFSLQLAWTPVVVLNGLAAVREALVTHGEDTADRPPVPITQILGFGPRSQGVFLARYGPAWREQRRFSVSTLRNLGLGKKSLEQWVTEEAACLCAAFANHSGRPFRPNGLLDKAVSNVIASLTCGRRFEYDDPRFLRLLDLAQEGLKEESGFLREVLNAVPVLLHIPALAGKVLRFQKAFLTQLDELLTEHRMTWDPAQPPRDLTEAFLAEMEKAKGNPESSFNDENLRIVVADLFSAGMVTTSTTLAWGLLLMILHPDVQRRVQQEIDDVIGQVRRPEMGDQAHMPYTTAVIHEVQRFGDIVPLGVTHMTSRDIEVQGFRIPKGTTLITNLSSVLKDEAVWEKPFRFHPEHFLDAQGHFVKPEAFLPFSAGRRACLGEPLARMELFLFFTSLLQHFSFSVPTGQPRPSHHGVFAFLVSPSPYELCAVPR
Protocol: (§1) Midazolam was obtained from BD Gentest (Waltham, Mass.); 1′ hydroxy midazolam and 1-hydroxy bufuralol maleate were obtained from Ultrafine Chemicals (Manchester, UK); bufuralol HCl, ketoconazole, quinidine, potassium phosphate, and NADPH were obtained from Sigma (St. Louis, Mo.). Test compounds were prepared at 10 mM concentration in DMSO (Mallinckrodt Inc., St. Louis, Mo.). NADPH was prepared at 10 mM concentration in a pH 7.4 buffer (8.3 mg/mL 66.7 mM potassium phosphate). Midazolam was prepared at 1 mM concentration in deionized water (Amgen, Thousand Oaks, Calif.), and bufuralol was prepared at 2 mM concentration in deionized water. A stock solution of ketoconazole was prepared at 37 mM concentration in DMSO, and quinidine was prepared at 500 uM concentration in DMSO. Formic acid in acetonitrile (0.05%, ACN) was used as a quench solution (Sigma-Aldrich, St. Louis, Mo.). All solvents used for LC/MS were of chromatographic grade. Pooled human liver microsomes (Lot 0610351) were purchased from XenoTech LLC, (Lenexa, Kans.).
Pooled human liver microsomes (0.25 mg/mL) were incubated at 37° C. in a phosphate buffer (66.7 mM potassium phosphate at pH 7.4) with the selective CYP2D6 substrate bufuralol at a concentration of 5 μM in the presence and absence of test compound (3 μM). The reaction was started with the addition of NADPH (1 mM final concentration). The reaction was stopped after 10 minutes by addition of formic acid in acetonitrile. 1-Hydroxybufuralol metabolite formation was measured by an HPLC MS detection method (mobile phases for HPLC were: 0.1% AcOH in 5% MeOH, and 0.1% AcOH in 95% MeOH; the HPLC column was an Onyx Monolithic C18 CHO-7645 HPLC column from Phenomenex; Shimadzu LC-10ADVP equipped Biomek FX Liquid handling system and CTC Analytics PAL well auto-sampler; Mass spectrometer: Applied Biosystems API 3000 using Analyst 1.4.1 software). Inhibition was determined by the ratio of the amount of 1-hydroxy bufuralol metabolite formed metabolite in the presence of test compound to the amount of metabolite in the absence of test compound.

CYP3A4 = target: T2, CYP3A4 (Homo sapiens, UniProt P08684); assay: CYP3A4 inhibition assay (midazolam, pooled human liver microsomes); assay type: in vitro ADME; details: pH 7.4, probe midazolam (2.5 μM), test compound 3 μM, human liver microsomes 0.1 mg/mL
T2 construct: tissue XenoTech LLC Lot 0610351; host or cells: pooled human liver microsomes
T2 sequence (P08684 whole entry): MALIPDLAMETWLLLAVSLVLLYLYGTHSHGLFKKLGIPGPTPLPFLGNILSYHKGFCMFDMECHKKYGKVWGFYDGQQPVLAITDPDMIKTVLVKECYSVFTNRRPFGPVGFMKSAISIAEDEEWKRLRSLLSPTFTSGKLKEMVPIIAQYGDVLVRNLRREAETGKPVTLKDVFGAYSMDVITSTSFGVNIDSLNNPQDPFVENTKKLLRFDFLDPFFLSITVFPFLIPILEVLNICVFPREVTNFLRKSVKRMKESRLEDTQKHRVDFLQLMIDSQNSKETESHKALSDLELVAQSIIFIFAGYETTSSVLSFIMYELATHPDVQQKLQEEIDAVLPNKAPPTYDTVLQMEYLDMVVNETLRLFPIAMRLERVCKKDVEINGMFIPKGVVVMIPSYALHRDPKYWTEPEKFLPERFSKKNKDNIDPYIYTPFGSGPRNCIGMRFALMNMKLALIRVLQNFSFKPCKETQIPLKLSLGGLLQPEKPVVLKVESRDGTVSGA
Protocol: as §1
Pooled human liver microsomes (0.1 mg/mL) were incubated at 37° C. in a phosphate buffer (66.7 mM potassium phosphate at pH 7.4) with the selective CYP3A substrate midazolam at a concentration of 2.5 μM in the presence and absence of test compound (3 μM). The reaction was started with the addition of NADPH (1 mM final concentration). The reaction was stopped after 10 minutes by addition of formic acid in acetonitrile. 1′-Hydroxymidazolam metabolite formation was measured by an HPLC MS detection method (mobile phases were 0.1% AcOH in 5% MeOH, and 0.1% AcOH in 95% MeOH; the HPLC column was an Onyx Monolithic C18 CHO-7645 HPLC column obtained from Phenomenex; Shimadzu LC-10ADVP equipped Biomek FX Liquid handling system and CTC Analytics PAL well auto-sampler; Mass spectrometer: Applied Biosystems API 3000 using Analyst 1.4.1 software). Inhibition was determined by the ratio of the amount of 1′-hydroxy midazolam metabolite formed in the presence of test compound to the amount of metabolite found in the absence of test compound Inhibition was measured relative to the rate of formation of 1′-hydroxy midazolam incubated at 2.5 μM without test compound.

[2] = IV 2 mg/kg, read-out: IV AUClast
[3] = PO 5 mg/kg, read-out: Oral AUClast
[4] = PO 5 mg/kg, read-out: Oral Cmax

FPO ([1]; PO 5 mg/kg, IV 2 mg/kg) [%] | Fpo (%) ([1]; PO 5 mg/kg, IV 2 mg/kg) | clearance ([1]; IV 2 mg/kg) [mL/min/kg] | AUC(0-t) [1, 2] [ng·h/mL] | Cmax ([1]; IV 2 mg/kg, read-out: IV Cmax) [ng/mL] | Vd ([1]; IV 2 mg/kg) [L/kg] | AUC(0-t) [1, 3] [ng·h/mL] | Cmax [1, 4] [ng/mL] | inhibition at 10 min, 3 μM (CYP2D6) [%] | inhibition at 10 min, 3 μM (CYP3A4) [%] | Compound
20 | 19 | 150 | 221 | 347 | 13.2 | 113 | 27 | 86 | 72 | N[C@H](CCc1ncc(-c2ccc3cnccc3c2)s1)[C@@H](O)c1ccc(C(F)(F)F)cc1 [36′, reference compound]
4 | 4 | 108 | 299 | 412 | 6.67 | 30 | 13 | 88 | 86 | CC(F)(F)c1ccc([C@H](O)[C@H](N)CNc2ncc(-c3ccc4cnccc4c3)s2)cc1 [38′, reference compound]
51 | 45 | 41.5 | 787 | 816 | 0.766 | 1000 | 138 | 75 | 94 | N[C@H](CNc1ncc(-c2ccc3cnccc3c2)s1)Cc1ccc(Cl)c(F)c1 [44′, reference compound]
146 | 65 | 85.6 | 359 | 284 | 8.78 | 1310 | 153 | 81 | 94 | N[C@H](CNc1ncc(-c2ccc3cnccc3c2)s1)CN1CCC(C(F)(F)F)CC1 [Comparative Example 25′, reference compound]
